Data reported in patent publication US20200077656A1, “Use of an Acyclic Picolinamide Compound as a Fungicide for Control of Phytopathogenic Fungi in Row Crops” (priority 2017, published 2020).
Like-named read-outs stand apart in the source and are kept apart here.

Assays:
Pyrenophora teres = experiment: Field assessment of Pyrenophora teres (PYRNTE) on barley, Trial 1 (inoculated); format: in vivo; settings: EC + Trycol
Excerpt: Field Assessment of Pyrenophora teres ([…]) on Barley: A fungicidal treatment containing an EC formulation of compound I, tanked mixed with an adjuvant (Trycol, 50% w/w at 0.1% v/v), was sprayed on barley plants (spring barley; […] variety) twice, the first application at BBCH 37-43 growth stages of spring barley (0.01% infection on L1 at application) and the second application at growth stages 53-57 of spring barley (6.25% infection at application). […] The experimental plots were inoculated with net blotch of barley (1,000,000 spores/mL) at growth stage 39 of spring barley 1 day after the first […]. […] Disease severity was recorded as a percentage of visual diseased foliage on whole plot. Net blotch of barley infection was assessed three times at 7, 14 and 21 days after the last application. The disease infection was recorded following EPPO PP1/26 guideline prescriptions. Area under the disease progress curve (AUDPC) was calculated for each plot using the sets of recorded severity data. Relative AUDPC (% control based on AUDPC) was calculated as percent of the nontreated control.

[1] = test system: Blumeria graminis f. sp. hordei; experiment: Greenhouse assessment of Blumeria graminis f. sp. hordei (ERYSGH) on barley; format: in vivo; settings: inoculated 1 day post application, barley seedlings
Protocol: Greenhouse Assessment of Blumeria graminis f sp. hordei ([…]) on Barley: In greenhouse studies, technical grades of material were dissolved in acetone, which were then mixed with nine volumes of water containing 100 ppm of Triton X-100. The fungicide formulations were applied onto seedling plants using an automated booth sprayer to run off. All sprayed plants were allowed to dry prior to further handling. Test plants were inoculated with powdery mildew of barley 1-day post application. When disease symptoms were fully expressed on the untreated plants, infection levels were assessed on a scale of 0 to 100 percent disease severity. Percent disease control was calculated using the ratio of disease severity on treated plants relative to untreated plants.

Sclerotium rolfsii = experiment: Field assessment of Sclerotium rolfsii (SCLORO) in peanut, percent stem incidence; settings: 42 DAAD, untreated 41.8
Protocol: Four applications, at two week intervals were made to each trial, starting at growth stage BBCH66 and continuing through BBCH84. The experimental plots were conducted with natural infestation of the pathogen. The treatment was part of an experimental trial designed as a randomized complete block (RCB) with four replications and a plot of approximately 6×40 ft.
Percent stem incidence (percent of stems with any disease, based on 80 stems counted per plot) was assessed at 42 days after application D (42 DAAD).

Magnaporthe grisea = format: in vivo; settings: two applications, EC + Trycol adjuvant, rice
Cercospora sojina = experiment: Field assessment of Cercospora sojina (CERSO) in soybean; format: in vivo; settings: for Percent Visual Severity of CERCSO: soybean upper canopy, untreated 8.6; for CERCSO Percent of Untreated (AUDPC): leaftop severity
[2] = test system: soybean (GLYMX, Glycine max); experiment: Yield of soybean in Cercospora sojina field trials; format: in vivo; settings: harvest at crop maturity
Puccinia polysora = experiment: Field assessment of Puccinia polysora (PUCCPY) in corn; format: in vivo; settings: EC + Trycol adjuvant
Cercospora beticola = experiment: Field assessment of Cercospora beticola (CERCBE) on sugar beet, two trials averaged; format: in vivo
Protocol: Field Assessment of Cercospora beticola (CERCBE) on Sugar Beet: Assessment of compound I of CERCBE on sugar beet was performed in two separate field trials. In the first trial, a fungicidal treatment containing an EC and SC formulations of compound I by itself and in combination with an adjuvant (Phase II, 50% w/w at 0.5% v/v) was sprayed on sugar beet plants ([…] variety) six times during the course of 7 weeks at the 18-39 growth stages of sugar beet. […] In the second trial, a fungicidal treatment containing an EC and SC formulations of compound I by itself and in combination with an adjuvant (Phase II, 50% w/w at 0.5% v/v) was sprayed on sugar beet plants (BEAVA) five times during the course of 4 weeks at the 36-49 growth stages of sugar beet. […] Disease severity was recorded as a percentage of visual diseased foliage on whole plot. Cercospora leaf spot infection was assessed three times at 7, 14 and 21 days after the last application. The disease infection was recorded following EPPO PP 1/1 (4) guideline prescriptions. Area under the disease progress curve (AUDPC) was calculated for each plot using the sets of recorded severity data. Relative AUDPC (% control based on AUDPC) was calculated as percent of the nontreated control and averaged over both field trials.

[3] = test system: peanut (ARHHY, Arachis hypogaea); experiment: Yield of peanut in Sclerotium rolfsii field trials; format: in vivo; settings: 49 DAAD
[4] = 50 g/ha, Agnique BP420 200 mL/ha
[5] = 75 g/ha, Agnique BP420 300 mL/ha
[6] = 100 g/ha, Agnique BP420 400 mL/ha
[7] = 150 g/ha, Agnique BP420 600 mL/ha
[8] = 100 g/ha, Adsee C80W 80% 250 g/ha

COc1ccnc(C(=O)N[C@@H](C)C(=O)O[C@@H](C)C(c2ccc(F)cc2)c2ccc(F)cc2)c1OC(C)=O [Compound I, (S)-1,1-bis(4-fluorophenyl)propan-2-yl (3-acetoxy-4-methoxypicolinoyl)-L-alaninate]
% Control (AUDPC) of PYRNTE, Trial 1 (Pyrenophora teres; 75 g ai/ha): B (51-75) | % Control (AUDPC) of PYRNTE, Trial 1 (Pyrenophora teres; 100 g ai/ha): B (51-75) | % Control (AUDPC) of PYRNTE, Trial 1 (Pyrenophora teres; 150 g ai/ha): B (51-75) | % Control of ERYSGH (disease severity treated relative to untreated) ([1]; 0.39 ppm): B (51-75) | % Control of ERYSGH (disease severity treated relative to untreated) ([1]; 1.56 ppm): A (76-100) | % Control of ERYSGH (disease severity treated relative to untreated) ([1]; 6.25 ppm): A (76-100) | % Control of ERYSGH (disease severity treated relative to untreated) ([1]; 25 ppm): A (76-100) | % Control of ERYSGH (disease severity treated relative to untreated) ([1]; 100 ppm): A (76-100) | Calc Percent Stem Incidence of SCLORO (Sclerotium rolfsii; [4]): 41.6% | Calc Percent Stem Incidence of SCLORO (Sclerotium rolfsii; 50 g/ha, MSO 100 g/ha): 39.1% | Calc Percent Stem Incidence of SCLORO (Sclerotium rolfsii; [5]): 33.2% | Calc Percent Stem Incidence of SCLORO (Sclerotium rolfsii; 75 g/ha, MSO 150 g/ha): 33.0% | Calc Percent Stem Incidence of SCLORO (Sclerotium rolfsii; [6]): 27.9% | Calc Percent Stem Incidence of SCLORO (Sclerotium rolfsii; 100 g/ha, MSO 200 g/ha): 28.2% | Calc Percent Stem Incidence of SCLORO (Sclerotium rolfsii; [7]): 29.6% | Calc Percent Stem Incidence of SCLORO (Sclerotium rolfsii; 150 g/ha, MSO 300 g/ha): 24.7% | Disease control of PYRIOR, percent control based on AUDPC (Magnaporthe grisea; 50 g ai/ha): C (26-50) | Disease control of PYRIOR, percent control based on AUDPC (Magnaporthe grisea; 100 g ai/ha): C (26-50) | Disease control of PYRIOR, percent control based on AUDPC (Magnaporthe grisea; 150 g ai/ha): B (51-75) | Disease control of PYRIOR, percent control based on AUDPC (Magnaporthe grisea; 200 g ai/ha): B (51-75) | Percent Visual Severity of CERCSO (Cercospora sojina; [4]): 5.6% | Percent Visual Severity of CERCSO (Cercospora sojina; 50 g/ha, MSO 100 g/ha): 6.5% | Percent Visual Severity of CERCSO (Cercospora sojina; [5]): 4.2% | Percent Visual Severity of CERCSO (Cercospora sojina; 75 g/ha, MSO 150 g/ha): 3.6% | Percent Visual Severity of CERCSO (Cercospora sojina; [8]): 4.5% | Percent Visual Severity of CERCSO (Cercospora sojina; [6]): 4.5% | Percent Visual Severity of CERCSO (Cercospora sojina; 100 g/ha, MSO 200 g/ha): 4.3% | Percent Visual Severity of CERCSO (Cercospora sojina; [7]): 3.3% | Percent Visual Severity of CERCSO (Cercospora sojina; 150 g/ha, MSO 300 g/ha): 3.3% | CERCSO Percent of Untreated (AUDPC) (Cercospora sojina; [4]): 62.0% | CERCSO Percent of Untreated (AUDPC) (Cercospora sojina; 50 g/ha, MSO 100 g/ha): 73.8% | CERCSO Percent of Untreated (AUDPC) (Cercospora sojina; [5]): 63.1% | CERCSO Percent of Untreated (AUDPC) (Cercospora sojina; 75 g/ha, MSO 150 g/ha): 62.9% | CERCSO Percent of Untreated (AUDPC) (Cercospora sojina; [8]): 58.3% | CERCSO Percent of Untreated (AUDPC) (Cercospora sojina; [6]): 61.6% | CERCSO Percent of Untreated (AUDPC) (Cercospora sojina; 100 g/ha, MSO 200 g/ha): 52.4% | CERCSO Percent of Untreated (AUDPC) (Cercospora sojina; [7]): 48.4% | CERCSO Percent of Untreated (AUDPC) (Cercospora sojina; 150 g/ha, MSO 300 g/ha): 53.5% | GLXMA Yield Percent of Untreated [2, 4]: 117.0% | GLXMA Yield Percent of Untreated ([2]; 50 g/ha, MSO 100 g/ha): 108.0% | GLXMA Yield Percent of Untreated [2, 5]: 119.2% | GLXMA Yield Percent of Untreated ([2]; 75 g/ha, MSO 150 g/ha): 114.6% | GLXMA Yield Percent of Untreated [2, 8]: 115.3% | GLXMA Yield Percent of Untreated [2, 6]: 117.6% | GLXMA Yield Percent of Untreated ([2]; 100 g/ha, MSO 200 g/ha): 113.4% | GLXMA Yield Percent of Untreated [2, 7]: 114.8% | GLXMA Yield Percent of Untreated ([2]; 150 g/ha, MSO 300 g/ha): 112.9% | Disease control of PUCCPY, percent control based on AUDPC (Puccinia polysora; 50 g ai/ha): C (26-50) | Disease control of PUCCPY, percent control based on AUDPC (Puccinia polysora; 100 g ai/ha): B (51-75) | Disease control of PUCCPY, percent control based on AUDPC (Puccinia polysora; 150 g ai/ha): B (51-75) | % Control (AUDPC) of CERCBE (Cercospora beticola; EC, 75 g ai/ha, no adjuvant): B (51-75) | % Control (AUDPC) of CERCBE (Cercospora beticola; EC, 75 g ai/ha, with Phase II adjuvant): B (51-75) | % Control (AUDPC) of CERCBE (Cercospora beticola; EC, 150 g ai/ha, no adjuvant): A (76-100) | % Control (AUDPC) of CERCBE (Cercospora beticola; SC, 75 g ai/ha, no adjuvant): B (51-75) | % Control (AUDPC) of CERCBE (Cercospora beticola; SC, 75 g ai/ha, with Phase II adjuvant): B (51-75) | % Control (AUDPC) of CERCBE (Cercospora beticola; SC, 150 g ai/ha, no adjuvant): A (76-100) | ARHHY Yield Percent of Untreated [3, 4]: 96.4% | ARHHY Yield Percent of Untreated ([3]; 50 g/ha, MSO 100 g/ha): 104.9% | ARHHY Yield Percent of Untreated [3, 5]: 113.9% | ARHHY Yield Percent of Untreated ([3]; 75 g/ha, MSO 150 g/ha): 112.8% | ARHHY Yield Percent of Untreated [3, 8]: 122.0% | ARHHY Yield Percent of Untreated [3, 6]: 118.0% | ARHHY Yield Percent of Untreated ([3]; 100 g/ha, MSO 200 g/ha): 115.7% | ARHHY Yield Percent of Untreated [3, 7]: 130.0% | ARHHY Yield Percent of Untreated ([3]; 150 g/ha, MSO 300 g/ha): 131.5%
